Data as given in PubChem BioAssay AID218 (DTP/NCI, 2004).
“And” between values parts separate entries of the source, which are not always exact repeats. Equal entries are not always repeated. Non-standard residues stand in square brackets, D forms with d. Residues, ends and D or L forms follow the SMILES beside them. Ac5c = NC1(C(=O)O)CCCC1

System: C57BL/6 mice, Adenocarcinoma 755 sc, tumor weight T/C
Assay: NCI In Vivo Anticancer Drug Screen. Data for tumor model Adenocarcinoma 755 (subcutaneous) in C57BL/6 mice
Details: endpoint: mean tumor weight, higher = larger tumour
Procedure: The antitumor activity of compounds was measured in mice bearing transplantable tumors. Survival or tumor size were measured and the results are expressed as the measurement made in the treated group (T) divided by the measurement made in the vehicle treated control group (C). The tumor model used in this assay is Adenocarcinoma 755 (subcutaneous) in C57BL/6 mice

[1] = dose: 25.0 mg/kg/injection, schedule: Q01DX011 (ip), vehicle: saline
[2] = dose: 50.0 mg/kg/injection, schedule: Q01DX011 (ip), vehicle: saline
[3] = dose: 100.0 mg/kg/injection, schedule: Q01DX011 (ip), vehicle: saline
[4] = dose: 200.0 mg/kg/injection, schedule: Q01DX011 (ip), vehicle: saline
[5] = dose: 5.0 mg/kg/injection, schedule: Q01DX011 (ip), vehicle: saline
[6] = dose: 10.0 mg/kg/injection, schedule: Q01DX011 (ip), vehicle: saline
[7] = dose: 25.0 mg/kg/injection, schedule: Q01DX011 (ip), vehicle: carboxymethylcellulose (CMC)
[8] = dose: 20.0 mg/kg/injection, schedule: Q01DX011 (ip), vehicle: saline
[9] = dose: 40.0 mg/kg/injection, schedule: Q01DX011 (ip), vehicle: saline

## CCCCOC(=O)C1(N)CCCC1
dose: 28.0 mg/kg/injection, schedule: Q01DX011 (ip), vehicle: saline
  T/C: 52 % of control
dose: 56.0 mg/kg/injection, schedule: Q01DX011 (ip), vehicle: saline
  T/C: 24 % of control

## [N-]=[N+]=CC(=O)CCC(N)C(=O)O (configuration not stated)
dose: 0.04 mg/kg/injection, schedule: Q01DX011 (ip), vehicle: saline
  T/C: 110 % of control
dose: 0.05 mg/kg/injection, schedule: Q01DX011 (ip), vehicle: saline
  T/C: 22 % of control
dose: 0.08 mg/kg/injection, schedule: Q01DX011 (ip), vehicle: saline
  T/C: 46 % of control
dose: 25.0 micrograms/kg/injection, schedule: Q01DX011 (ip), vehicle: saline
  T/C: 39 % of control
dose: 50.0 micrograms/kg/injection, schedule: Q01DX011 (ip), vehicle: saline
  T/C: 45 % of control

## NCC(=O)NC1(C(=O)O)CCCC1 (H-Gly-[Ac5c]-OH)
[1]
  T/C: 58 % of control
[2]
  T/C: 37 % of control
[3]
  T/C: 9 % of control

## Oc1ccc2ccccc2c1N=Nc1ccc(F)cc1
dose: 6.25 mg/kg/injection, schedule: Q01DX011 (ip), vehicle: saline
  T/C: 55 % of control
dose: 12.5 mg/kg/injection, schedule: Q01DX011 (ip), vehicle: saline
  T/C: 45 % of control
[1]
  T/C: 37 % of control
[2]
  T/C: 30 % of control and 35 % of control
[3]
  T/C: 28 % of control
[4]
  T/C: 12 % of control
dose: 400.0 mg/kg/injection, schedule: Q01DX011 (ip), vehicle: saline
  T/C: 28 % of control

## Nc1nc2n[nH]nc2c(=O)[nH]1
dose: 37.5 mg/kg/injection, schedule: Q01DX007 (sc), vehicle: carboxymethylcellulose (CMC)
  T/C: 51 % of control and 66 % of control
dose: 37.5 mg/kg/injection, schedule: Q01DX011 (ip), vehicle: saline
  T/C: 10 % of control
dose: 37.5 mg/kg/injection, schedule: Q01DX011 (sc), vehicle: saline
  T/C: 25 % of control
dose: 50.0 mg/kg/injection, schedule: Q01DX011 (sc), vehicle: saline
  T/C: 16 % of control
dose: 50.0 mg/kg/injection, schedule: Q02DX006 (ip), vehicle: other
  T/C: 57 % of control
dose: 60.0 mg/kg/injection, schedule: Q02DX006 (ip), vehicle: other
  T/C: 64 % of control
dose: 75.0 mg/kg/injection, schedule: Q01DX011 (ip), vehicle: saline
  T/C: 6 % of control
dose: 75.0 mg/kg/injection, schedule: Q01DX011 (sc), vehicle: saline
  T/C: 4 % of control
dose: 100.0 mg/kg/injection, schedule: Q01DX007 (sc), vehicle: carboxymethylcellulose (CMC)
  T/C: 5 % of control and 14 % of control

## CSc1ncnc2c1ncn2C1OC(CO)C(O)C1O (configuration not stated)
[5]
  T/C: 78 % of control
[6]
  T/C: 50 % of control
dose: 15.0 mg/kg/injection, schedule: Q01DX011 (ip), vehicle: saline
  T/C: 67 % of control

## CCc1nc(N)nc(N)c1-c1ccc(Cl)cc1
[2]
  T/C: 67 % of control

## NNC(=O)c1nsnc1NC(N)=O
dose: 6.0 mg/kg/injection, schedule: Q01DX011 (ip), vehicle: carboxymethylcellulose (CMC)
  T/C: 109 % of control
dose: 11.0 mg/kg/injection, schedule: Q01DX011 (ip), vehicle: carboxymethylcellulose (CMC)
  T/C: 107 % of control
dose: 22.0 mg/kg/injection, schedule: Q01DX011 (ip), vehicle: carboxymethylcellulose (CMC)
  T/C: 99 % of control

## Nc1nc(=O)[nH]c2n[nH]nc12
dose: 5.0 mg/kg/injection, schedule: Q01DX011 (ip), vehicle: carboxymethylcellulose (CMC)
  T/C: 82 % of control
dose: 10.0 mg/kg/injection, schedule: Q01DX011 (ip), vehicle: carboxymethylcellulose (CMC)
  T/C: 79 % of control
[7]
  T/C: 64 % of control

## S=c1[nH]c(=S)c2[nH]cnc2[nH]1
[3]
  T/C: 13 % of control
[4]
  T/C: 7 % of control

## Cn1ncc2c(N)ncnc21
dose: 20.0 mg/kg/injection, schedule: Q02DX006 (ip), vehicle: other
  T/C: 47 % of control
dose: 40.0 mg/kg/injection, schedule: Q02DX006 (ip), vehicle: other
  T/C: 28 % of control

## Cc1ccc(N2CCN(CCCN3CCN(c4ccc(Cl)cc4)CC3)CC2)cc1
dose: 3.1 mg/kg/injection, schedule: Q01DX011 (ip), vehicle: carboxymethylcellulose (CMC)
  T/C: 93 % of control
dose: 6.25 mg/kg/injection, schedule: Q01DX011 (ip), vehicle: carboxymethylcellulose (CMC)
  T/C: 83 % of control
dose: 12.5 mg/kg/injection, schedule: Q01DX011 (ip), vehicle: carboxymethylcellulose (CMC)
  T/C: 90 % of control
[7]
  T/C: 52 % of control
dose: 50.0 mg/kg/injection, schedule: Q01DX011 (ip), vehicle: carboxymethylcellulose (CMC)
  T/C: 43 % of control

## Nc1ncnc2n[nH]nc12
[8]
  T/C: 60 % of control
dose: 30.0 mg/kg/injection, schedule: Q01DX011 (ip), vehicle: saline
  T/C: 85 % of control
[9]
  T/C: 46 % of control

## C[N+](C)(C)c1ncnc2nc[nH]c12
dose: 1.25 mg/kg/injection, schedule: Q#A X022 (ip), vehicle: saline
  T/C: 95 % of control
dose: 2.5 mg/kg/injection, schedule: Q01DX011 (ip), vehicle: saline
  T/C: 109 % of control
dose: 2.5 mg/kg/injection, schedule: Q01DX011 (sc), vehicle: saline
  T/C: 56 % of control
dose: 2.5 mg/kg/injection, schedule: Q#A X022 (ip), vehicle: saline
  T/C: 93 % of control
[5]
  T/C: 52 % of control
dose: 5.0 mg/kg/injection, schedule: Q01DX011 (sc), vehicle: saline
  T/C: 34 % of control
dose: 5.0 mg/kg/injection, schedule: Q#A X022 (ip), vehicle: saline
  T/C: 40 % of control
dose: 7.5 mg/kg/injection, schedule: Q03DX004 (ip), vehicle: saline
  T/C: 77 % of control
dose: 10.0 mg/kg/injection, schedule: Q01DX006 (iv), vehicle: saline
  T/C: 50 % of control
[6]
  T/C: 12 % of control and 18 % of control
dose: 10.0 mg/kg/injection, schedule: Q01DX011 (oral), vehicle: saline
  T/C: 58 % of control
dose: 10.0 mg/kg/injection, schedule: Q01DX011 (sc), vehicle: saline
  T/C: 34 % of control
dose: 10.0 mg/kg/injection, schedule: Q02DX006 (im), vehicle: saline
  T/C: 54 % of control
dose: 10.0 mg/kg/injection, schedule: Q#A X022 (ip), vehicle: saline
  T/C: 13 % of control and 18 % of control
dose: 15.0 mg/kg/injection, schedule: Q03DX004 (ip), vehicle: saline
  T/C: 76 % of control
[8]
  T/C: 6 % of control and 11 % of control and 18 % of control
dose: 20.0 mg/kg/injection, schedule: Q01DX011 (oral), vehicle: saline
  T/C: 43 % of control
dose: 20.0 mg/kg/injection, schedule: Q01DX011 (sc), vehicle: saline
  T/C: 8 % of control and 16 % of control
dose: 20.0 mg/kg/injection, schedule: Q02DX006 (im), vehicle: saline
  T/C: 50 % of control
dose: 20.0 mg/kg/injection, schedule: Q#A X022 (ip), vehicle: saline
  T/C: 8 % of control
dose: 30.0 mg/kg/injection, schedule: Q03DX004 (ip), vehicle: saline
  T/C: 32 % of control
dose: 40.0 mg/kg/injection, schedule: Q01DX006 (iv), vehicle: saline
  T/C: 42 % of control
[9]
  T/C: 6 % of control and 9 % of control
dose: 40.0 mg/kg/injection, schedule: Q01DX011 (oral), vehicle: saline
  T/C: 12 % of control and 18 % of control
dose: 40.0 mg/kg/injection, schedule: Q01DX011 (sc), vehicle: saline
  T/C: 7 % of control
dose: 40.0 mg/kg/injection, schedule: Q02DX006 (im), vehicle: saline
  T/C: 39 % of control
dose: 60.0 mg/kg/injection, schedule: Q03DX004 (ip), vehicle: saline
  T/C: 16 % of control and 18 % of control
dose: 75.0 mg/kg/injection, schedule: Q01DX001 (ip), vehicle: saline
  T/C: 76 % of control and 85 % of control
dose: 80.0 mg/kg/injection, schedule: Q01DX006 (iv), vehicle: saline
  T/C: 15 % of control
dose: 80.0 mg/kg/injection, schedule: Q01DX011 (ip), vehicle: saline
  T/C: 5 % of control
dose: 80.0 mg/kg/injection, schedule: Q01DX011 (oral), vehicle: saline
  T/C: 5 % of control and 10 % of control and 17 % of control
dose: 80.0 mg/kg/injection, schedule: Q01DX011 (sc), vehicle: saline
  T/C: 5 % of control
dose: 80.0 mg/kg/injection, schedule: Q02DX006 (im), vehicle: saline
  T/C: 20 % of control
dose: 120.0 mg/kg/injection, schedule: Q03DX004 (ip), vehicle: saline
  T/C: 10 % of control
dose: 150.0 mg/kg/injection, schedule: Q01DX001 (ip), vehicle: saline
  T/C: 47 % of control and 48 % of control
dose: 160.0 mg/kg/injection, schedule: Q01DX011 (oral), vehicle: saline
  T/C: 8 % of control
dose: 160.0 mg/kg/injection, schedule: Q01DX011 (sc), vehicle: saline
  T/C: 4 % of control
dose: 300.0 mg/kg/injection, schedule: Q01DX001 (ip), vehicle: saline
  T/C: 33 % of control and 40 % of control
dose: 320.0 mg/kg/injection, schedule: Q01DX011 (oral), vehicle: saline
  T/C: 5 % of control
